#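 Following 48 hours of exposure in 96-well plates, responses at five concentrations were used to interpolate endpoints linearly. GI50 is the concentration that inhibits growth by half. TGI marks complete inhibition of growth.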
# What was measured:
# Test in all cases: NCI anticancer screen, dose series, 48 h
# [1] = test system: A498 renal
# [2] = test system: OVCAR-4 ovarian
# [3] = test system: BT-549 breast
# [4] = test system: SNB-75 CNS
# [5] = test system: UO-31 renal
# [6] = test system: OVCAR-3 ovarian
# [7] = test system: TK-10 renal
# [8] = test system: HOP-62 NSCLC
# [9] = test system: MOLT-4 leukemia
# [10] = test system: UACC-257 melanoma
# [11] = test system: K-562 leukemia
# [12] = test system: NCI-H23 lung
# [13] = test system: SK-MEL-2 melanoma
# [14] = test system: MALME-3M melanoma
# [15] = test system: SR leukemia
# [16] = test system: PC-3 prostate
# [17] = test system: DU-145 prostate
# [18] = test system: CCRF-CEM leukemia
# [19] = test system: T-47D breast
# [20] = test system: HCC-2998 colon
# [21] = test system: SF-295 CNS
# [22] = test system: SK-OV-3 ovarian
# [23] = test system: SF-539 CNS
# [24] = test system: 786-0 renal
# [25] = test system: EKVX NSCLC
# [26] = test system: COLO 205 colon
# [27] = test system: HOP-92 NSCLC
# [28] = test system: SNB-19 CNS
# [29] = test system: MCF7 breast
# [30] = test system: NCI-H226 lung
# [31] = test system: SN12C renal
# [32] = test system: ACHN renal
# [33] = test system: HS 578T breast
# [34] = test system: OVCAR-8 ovarian
# [35] = test system: HL-60(TB) leukemia
# [36] = test system: MDA-MB-231 breast
# [37] = test system: IGROV1 ovarian
# [38] = test system: HCT-15 colon
# [39] = test system: A549 NSCLC
# [40] = test system: M14 melanoma
# [41] = test system: NCI-H460 lung
# [42] = test system: HT29 colon
# [43] = test system: LOX IMVI melanoma
# [44] = test system: MDA-MB-435
# [45] = test system: RPMI-8226 leukemia
# [46] = test system: CAKI-1 renal
# [47] = test system: OVCAR-5 ovarian
# [48] = test system: KM12 colon
# [49] = test system: SK-MEL-5 melanoma
# [50] = test system: UACC-62 melanoma
# [51] = test system: HCT-116 colon
# [52] = test system: NCI/ADR-RES ovarian
# [53] = test system: U251 CNS
# [54] = test system: NCI-H522 lung
# [55] = test system: SF-268 CNS
# [56] = test system: SW-620 colon
# [57] = test system: RXF 393 renal
# [58] = test system: SK-MEL-28 melanoma
structure (smiles),measurement,setting,value
COc1cc(-c2nccn2-c2ccc3ccccc3c2)cc(OC)c1OC,GI50,[1],77.8 nM
same,TGI,[1],1360 nM
same,GI50,[2],2040 nM
same,TGI,[2],44600 nM
same,GI50,[3],99.5 nM
same,TGI,[3],15600 nM
same,GI50,[4],60.5 nM
same,TGI,[4],24800 nM
same,GI50,[5],1650 nM
same,TGI,[5],> 62600 nM
same,GI50,[6],< 17.6 nM
same,TGI,[6],1610 nM
same,GI50,[7],2940 nM
same,TGI,[7],> 87600 nM
same,GI50,[8],67.5 nM
same,TGI,[8],18300 nM
same,GI50,[9],70.8 nM
same,TGI,[9],17000 nM
same,GI50,[10],12900 nM
same,TGI,[10],41300 nM
same,GI50,[11],< 15.6 nM
same,TGI,[11],> 32300 nM
same,GI50,[12],78.9 nM
same,TGI,[12],5530 nM
same,GI50,[13],6200 nM
same,TGI,[13],> 50300 nM
same,GI50,[14],16000 nM
same,TGI,[14],47600 nM
same,GI50,[15],< 14.7 nM
same,TGI,[15],7060 nM
same,GI50,[16],45.3 nM
same,TGI,[16],> 100000 nM
same,GI50,[17],84.4 nM
same,TGI,[17],> 32300 nM
same,GI50,[18],48 nM
same,TGI,[18],32500 nM
same,GI50,[19],17700 nM
same,TGI,[19],94800 nM
same,GI50,[20],< 36.7 nM
same,TGI,[20],1660 nM
same,GI50,[21],< 15.9 nM
same,TGI,[21],15500 nM
same,GI50,[22],990 nM
same,TGI,[22],74000 nM
same,GI50,[23],46.6 nM
same,TGI,[23],625 nM
same,GI50,[24],56.4 nM
same,TGI,[24],12500 nM
same,GI50,[25],379 nM
same,TGI,[25],48100 nM
same,GI50,[26],40.2 nM
same,TGI,[26],2440 nM
same,GI50,[27],10100 nM
same,TGI,[27],31400 nM
same,GI50,[28],98.5 nM
same,TGI,[28],24300 nM
same,GI50,[29],< 13 nM
same,TGI,[29],15800 nM
same,GI50,[30],206 nM
same,TGI,[30],20300 nM
same,GI50,[31],666 nM
same,TGI,[31],22600 nM
same,GI50,[32],2590 nM
same,TGI,[32],49600 nM
same,GI50,[33],66.8 nM
same,TGI,[33],71500 nM
same,GI50,[34],489 nM
same,TGI,[34],> 88000 nM
same,GI50,[35],< 17.6 nM
same,TGI,[35],1330 nM
same,GI50,[36],333 nM
same,TGI,[36],22600 nM
same,GI50,[37],1110 nM
same,TGI,[37],> 41200 nM
same,GI50,[38],< 22.6 nM
same,TGI,[38],12600 nM
same,GI50,[39],740 nM
same,TGI,[39],> 65500 nM
same,GI50,[40],61.3 nM
same,TGI,[40],12700 nM
same,GI50,[41],< 21.5 nM
same,TGI,[41],11700 nM
same,GI50,[42],< 19.6 nM
same,TGI,[42],14000 nM
same,GI50,[43],1530 nM
same,TGI,[43],19000 nM
same,TGI,[44],51.1 nM
same,GI50,[45],190 nM
same,TGI,[45],17500 nM
same,GI50,[46],< 26.8 nM
same,TGI,[46],47000 nM
same,GI50,[47],469 nM
same,TGI,[47],24200 nM
same,GI50,[48],< 16.6 nM
same,TGI,[48],18200 nM
same,GI50,[49],< 19.5 nM
same,TGI,[49],4450 nM
same,GI50,[50],< 17.7 nM
same,TGI,[50],14500 nM
same,GI50,[51],40 nM
same,TGI,[51],11700 nM
same,TGI,[52],27.3 nM
same,GI50,[53],54.7 nM
same,TGI,[53],16700 nM
same,GI50,[54],< 21.8 nM
same,TGI,[54],20400 nM
same,GI50,[55],335 nM
same,TGI,[55],18900 nM
same,GI50,[56],24 nM
same,TGI,[56],25200 nM
same,GI50,[57],254 nM
same,TGI,[57],28700 nM
COC1=C(OC)C(=O)C(CCCCCCCCCC[P+](c2ccccc2)(c2ccccc2)c2ccccc2)=C(C)C1=O,GI50,[1],371 nM
same,TGI,[1],1790 nM
same,GI50,[2],166 nM
same,TGI,[2],2860 nM
same,GI50,[3],249 nM
same,TGI,[3],1090 nM
same,GI50,[4],211 nM
same,TGI,[4],925 nM
same,GI50,[5],1670 nM
same,TGI,[5],3430 nM
same,GI50,[6],219 nM
same,TGI,[6],1100 nM
same,GI50,[7],303 nM
same,TGI,[7],1380 nM
same,GI50,[8],194 nM
same,TGI,[8],491 nM
same,GI50,[9],376 nM
same,TGI,[9],7780 nM
same,GI50,[10],150 nM
same,TGI,[10],931 nM
same,GI50,[11],244 nM
same,GI50,[12],160 nM
same,TGI,[12],930 nM
same,GI50,[13],744 nM
same,TGI,[13],3510 nM
same,GI50,[14],206 nM
same,TGI,[14],908 nM
same,GI50,[15],> 100000 nM
same,TGI,[15],> 100000 nM
same,GI50,[16],130 nM
same,TGI,[16],4040 nM
same,GI50,[17],351 nM
same,TGI,[17],1730 nM
same,GI50,[18],107 nM
same,TGI,[18],1180 nM
same,GI50,[58],475 nM
same,TGI,[58],2170 nM
same,GI50,[19],48.1 nM
same,TGI,[19],1040 nM
same,GI50,[20],247 nM
same,TGI,[20],1380 nM
same,GI50,[21],189 nM
same,TGI,[21],585 nM
same,GI50,[22],255 nM
same,TGI,[22],869 nM
same,GI50,[23],256 nM
same,TGI,[23],1280 nM
same,GI50,[24],269 nM
same,TGI,[24],530 nM
same,GI50,[25],137 nM
same,TGI,[25],4740 nM
same,GI50,[26],99.9 nM
same,TGI,[26],279 nM
same,GI50,[27],97.7 nM
same,TGI,[27],504 nM
same,GI50,[28],125 nM
same,TGI,[28],1300 nM
same,GI50,[29],42 nM
same,TGI,[29],532 nM
same,GI50,[30],284 nM
same,TGI,[30],915 nM
same,GI50,[31],213 nM
same,TGI,[31],1320 nM
same,GI50,[32],1070 nM
same,TGI,[32],3720 nM
same,GI50,[33],204 nM
same,TGI,[33],1620 nM
same,GI50,[35],59.8 nM
same,TGI,[35],409 nM
same,GI50,[36],265 nM
same,TGI,[36],1480 nM
same,GI50,[37],187 nM
same,TGI,[37],1870 nM
same,GI50,[38],1330 nM
same,TGI,[38],3460 nM
same,GI50,[39],337 nM
same,TGI,[39],5140 nM
same,GI50,[40],366 nM
same,TGI,[40],1700 nM
same,GI50,[41],266 nM
same,TGI,[41],1160 nM
same,GI50,[42],194 nM
same,TGI,[42],1050 nM
same,GI50,[43],299 nM
same,TGI,[43],1550 nM
same,GI50,[44],193 nM
same,TGI,[44],1280 nM
same,GI50,[45],24.7 nM
same,TGI,[45],143 nM
same,GI50,[46],853 nM
same,TGI,[46],3270 nM
same,GI50,[47],361 nM
same,TGI,[47],1410 nM
same,GI50,[48],145 nM
same,TGI,[48],884 nM
same,GI50,[49],71.3 nM
same,TGI,[49],222 nM
same,GI50,[50],312 nM
same,TGI,[50],1730 nM
same,GI50,[51],135 nM
same,TGI,[51],329 nM
same,GI50,[52],3130 nM
same,TGI,[52],20300 nM
same,GI50,[53],104 nM
same,TGI,[53],1170 nM
same,GI50,[54],170 nM
same,TGI,[54],795 nM
same,GI50,[55],345 nM
same,TGI,[55],1440 nM
same,GI50,[56],334 nM
same,TGI,[56],4910 nM
same,GI50,[57],293 nM
same,TGI,[57],10700 nM
